# Measured values published in PubChem BioAssay AID228 (DTP/NCI, 2004).
# Where “and” joins values, the source holds several entries; their conditions need not be identical. Equal values may be shown once. Inconclusive results are not listed.
# Tested on: BDF1 mice, Friend leukemia sc, tumor weight T/C
# Test: NCI In Vivo Anticancer Drug Screen. Data for tumor model Friend Virus Leukemia (Solid) (subcutaneous) in B6D2F1 (BDF1) mice
# Conditions: endpoint: mean tumor weight, schedule: Q01DX011 (ip), higher = larger tumour
# Method: The antitumor activity of compounds was measured in mice bearing transplantable tumors. Survival or tumor size were measured and the results are expressed as the measurement made in the treated group (T) divided by the measurement made in the vehicle treated control group (C). The tumor model used in this assay is Friend Virus Leukemia (Solid) (subcutaneous) in B6D2F1 (BDF1) mice
# [1] = dose: 1.0 mg/kg/injection, vehicle: saline
# [2] = dose: 4.0 mg/kg/injection, vehicle: saline
# [3] = dose: 125.0 mg/kg/injection, vehicle: carboxymethylcellulose (CMC)
# [4] = dose: 250.0 mg/kg/injection, vehicle: carboxymethylcellulose (CMC)
# [5] = dose: 500.0 mg/kg/injection, vehicle: carboxymethylcellulose (CMC)
# [6] = dose: 3.0 mg/kg/injection, vehicle: carboxymethylcellulose (CMC)
# [7] = dose: 6.0 mg/kg/injection, vehicle: carboxymethylcellulose (CMC)
# [8] = dose: 0.05 mg/kg/injection, vehicle: carboxymethylcellulose (CMC)
# [9] = dose: 0.1 mg/kg/injection, vehicle: carboxymethylcellulose (CMC)
# [10] = dose: 0.15 mg/kg/injection, vehicle: carboxymethylcellulose (CMC)
# [11] = dose: 37.5 mg/kg/injection, vehicle: carboxymethylcellulose (CMC)
# [12] = dose: 150.0 mg/kg/injection, vehicle: carboxymethylcellulose (CMC)
# [13] = dose: 56.0 mg/kg/injection, vehicle: carboxymethylcellulose (CMC)
# [14] = dose: 60.0 mg/kg/injection, vehicle: carboxymethylcellulose (CMC)
# [15] = dose: 90.0 mg/kg/injection, vehicle: carboxymethylcellulose (CMC)
smiles,measurement,setting,value
CCOc1ccc(Nc2ncnc3nc[nH]c23)cc1CN(CCCl)CCCl,T/C,[1],101 % of control
same,T/C,[2],70 % of control
O=C(Nc1ccc(C2=NCCN2)cc1)c1cc(Cl)cc(C(=O)Nc2ccc(C3=NCCN3)cc2)c1,T/C,"dose: 62.0 mg/kg/injection, vehicle: carboxymethylcellulose (CMC)",75 % of control
same,T/C,[3],111 % of control
same,T/C,[4],81 % of control
same,T/C,[5],114 % of control
CC(/C=N/N=C(N)N)=N/N=C(N)N,T/C,"dose: 50.0 mg/kg/injection, vehicle: saline",124 % of control
CCC(C)C(NN)C(=O)O (centres undefined),T/C,"dose: 2.5 mg/kg/injection, vehicle: other",84 % of control
same,T/C,"dose: 5.0 mg/kg/injection, vehicle: other",104 % of control
same,T/C,"dose: 10.0 mg/kg/injection, vehicle: other",81 % of control
same,T/C,"dose: 20.0 mg/kg/injection, vehicle: other",89 % of control
same,T/C,"dose: 40.0 mg/kg/injection, vehicle: other",83 % of control
same,T/C,"dose: 50.0 mg/kg/injection, vehicle: other",21 % of control
O=NN1CCN(N=O)CC1,T/C,"dose: 8.3 mg/kg/injection, vehicle: carboxymethylcellulose (CMC)",94 % of control
same,T/C,"dose: 16.7 mg/kg/injection, vehicle: carboxymethylcellulose (CMC)",120 % of control
same,T/C,"dose: 23.5 mg/kg/injection, vehicle: carboxymethylcellulose (CMC)",95 % of control
same,T/C,"dose: 26.0 mg/kg/injection, vehicle: carboxymethylcellulose (CMC)",85 % of control
CCSCCC(N)C(=O)O (centres undefined),T/C,"dose: 10.2 mg/kg/injection, vehicle: carboxymethylcellulose (CMC)",114 % of control
same,T/C,"dose: 20.5 mg/kg/injection, vehicle: carboxymethylcellulose (CMC)",80 % of control
same,T/C,"dose: 41.0 mg/kg/injection, vehicle: carboxymethylcellulose (CMC)",109 % of control
same,T/C,"dose: 82.0 mg/kg/injection, vehicle: carboxymethylcellulose (CMC)",111 % of control
N#CCSc1nc(N)nc2nc[nH]c12,T/C,"dose: 31.25 mg/kg/injection, vehicle: carboxymethylcellulose (CMC)",83 % of control
same,T/C,"dose: 62.5 mg/kg/injection, vehicle: carboxymethylcellulose (CMC)",40 % of control
same,T/C,[3],31 % of control
NC(Cc1ccc(N(CCCl)CCCl)cc1)C(=O)O (centres undefined),T/C,"dose: 0.32 mg/kg/injection, vehicle: carboxymethylcellulose (CMC)",101 % of control
same,T/C,"dose: 0.64 mg/kg/injection, vehicle: carboxymethylcellulose (CMC)",87 % of control
same,T/C,"dose: 1.0 mg/kg/injection, vehicle: carboxymethylcellulose (CMC)",65 % of control
same,T/C,"dose: 1.28 mg/kg/injection, vehicle: carboxymethylcellulose (CMC)",101 % of control
same,T/C,"dose: 2.0 mg/kg/injection, vehicle: carboxymethylcellulose (CMC)",60 % of control
same,T/C,"dose: 2.56 mg/kg/injection, vehicle: carboxymethylcellulose (CMC)",70 % of control
same,T/C,[6],57 % of control
same,T/C,"dose: 4.0 mg/kg/injection, vehicle: carboxymethylcellulose (CMC)",32 % of control
same,T/C,"dose: 5.0 mg/kg/injection, vehicle: carboxymethylcellulose (CMC)",36 % of control
same,T/C,[7],13 % of control
same,T/C,"dose: 8.0 mg/kg/injection, vehicle: carboxymethylcellulose (CMC)",7 % of control
C1CN1c1nc(N2CC2)nc(N2CC2)n1,T/C,[8],164 % of control and 233 % of control
same,T/C,[9],161 % of control and 293 % of control
same,T/C,"dose: 0.12 mg/kg/injection, vehicle: carboxymethylcellulose (CMC)",114 % of control
same,T/C,[10],41 % of control
same,T/C,"dose: 0.2 mg/kg/injection, vehicle: carboxymethylcellulose (CMC)",169 % of control and 256 % of control
same,T/C,"dose: 0.2 mg/kg/injection, vehicle: saline",61 % of control and 76 % of control
same,T/C,"dose: 0.3 mg/kg/injection, vehicle: carboxymethylcellulose (CMC)",26 % of control
same,T/C,"dose: 0.3 mg/kg/injection, vehicle: saline",49 % of control
same,T/C,"dose: 0.4 mg/kg/injection, vehicle: carboxymethylcellulose (CMC)",68 % of control and 85 % of control
same,T/C,"dose: 0.4 mg/kg/injection, vehicle: saline",31 % of control and 35 % of control
same,T/C,"dose: 0.6 mg/kg/injection, vehicle: carboxymethylcellulose (CMC)",24 % of control
Cc1c2ccc3ccccc3c2c[n+]2ccccc12,T/C,[6],97 % of control
same,T/C,[7],105 % of control
same,T/C,"dose: 24.0 mg/kg/injection, vehicle: carboxymethylcellulose (CMC)",61 % of control and 37 % of control
CNC(C)=O,T/C,[4],104 % of control
same,T/C,[5],99 % of control and 107 % of control
same,T/C,"dose: 1000.0 mg/kg/injection, vehicle: carboxymethylcellulose (CMC)",75 % of control and 76 % of control
O=C(C[N+]12CN3CN(CN(C3)C1)C2)c1ccc(Cl)cc1,T/C,[11],101 % of control
same,T/C,[12],117 % of control
same,T/C,"dose: 300.0 mg/kg/injection, vehicle: carboxymethylcellulose (CMC)",93 % of control
NC(=O)c1ccc(NC(=O)CCC(=O)Nc2ccc(C(N)=O)cn2)nc1,T/C,"dose: 0.5 mg/kg/injection, vehicle: saline",106 % of control
same,T/C,[1],117 % of control
same,T/C,"dose: 2.0 mg/kg/injection, vehicle: saline",106 % of control
same,T/C,[2],57 % of control
Cc1cc2nc3c(=O)[nH]c(=O)nc-3n(CC(O)C(O)C(O)C(O)CO)c2cc1C (centres undefined),T/C,[13],103 % of control
same,T/C,"dose: 113.0 mg/kg/injection, vehicle: carboxymethylcellulose (CMC)",110 % of control
O=C1C(=O)C(Cl)=C(Cl)C(Cl)=C1Cl,T/C,"dose: 15.0 mg/kg/injection, vehicle: carboxymethylcellulose (CMC)",108 % of control
same,T/C,"dose: 30.0 mg/kg/injection, vehicle: carboxymethylcellulose (CMC)",90 % of control
same,T/C,[14],89 % of control
CSc1ncnc2nc[nH]c12,T/C,"dose: 5.7 mg/kg/injection, vehicle: carboxymethylcellulose (CMC)",155 % of control
same,T/C,"dose: 11.5 mg/kg/injection, vehicle: carboxymethylcellulose (CMC)",115 % of control
same,T/C,"dose: 22.5 mg/kg/injection, vehicle: carboxymethylcellulose (CMC)",59 % of control and 81 % of control
same,T/C,"dose: 45.0 mg/kg/injection, vehicle: carboxymethylcellulose (CMC)",35 % of control and 42 % of control
same,T/C,[15],39 % of control
Fc1ccc(CSc2ncnc3c2ncn3C2CCCCO2)cc1 (centres undefined),T/C,[15],10 % of control
same,T/C,"dose: 180.0 mg/kg/injection, vehicle: carboxymethylcellulose (CMC)",1 % of control
CCCSc1ncnc2nc[nH]c12,T/C,"dose: 18.75 mg/kg/injection, vehicle: carboxymethylcellulose (CMC)",64 % of control
same,T/C,[11],64 % of control
same,T/C,"dose: 75.0 mg/kg/injection, vehicle: carboxymethylcellulose (CMC)",45 % of control
same,T/C,[12],8 % of control
NNC(=O)c1nsnc1NC(N)=O,T/C,"dose: 43.0 mg/kg/injection, vehicle: carboxymethylcellulose (CMC)",53 % of control
same,T/C,[14],46 % of control
Nc1nc2ncc(CNc3ccc(C(=O)NC(CCC(=O)O)C(=O)O)cc3)nc2c(=O)[nH]1 (centres undefined),T/C,"dose: 7.0 mg/kg/injection, vehicle: carboxymethylcellulose (CMC)",56 % of control
same,T/C,"dose: 14.0 mg/kg/injection, vehicle: carboxymethylcellulose (CMC)",105 % of control
same,T/C,"dose: 28.0 mg/kg/injection, vehicle: carboxymethylcellulose (CMC)",79 % of control
same,T/C,[13],70 % of control
N#Cc1cn(C2OC(CO)C(O)C2O)c2ncnc(N)c12 (centres undefined),T/C,[8],68 % of control
same,T/C,[9],72 % of control
same,T/C,[10],71 % of control
